Experiments:
Staph. aureus Tour = experiment: MIC by microbroth dilution, Staph. aureus Tour; format: cell-based, Staphylococcus aureus; details: Staph. aureus Tour (code 165), 0.01% BSA, read 18-24 h
Staph. aureus Smith = experiment: MIC by microbroth dilution, Staph. aureus Smith; format: cell-based, Staphylococcus aureus; details: Staph. aureus Smith (code 819); 0.01% BSA; inocula about 10^4 (1-4), about 5×10^5 cfu/ml (5, 6); 18-24 h
[1] = test system: Staph. epidermidis ATCC 12228; experiment: MIC by microbroth dilution, Staph. epidermidis; format: cell-based, Staphylococcus epidermidis; details: Staph. epidermidis ATCC 12228 (code 147); 0.01% BSA; inocula about 10^4 (1-4), about 5×10^5 cfu/ml (5, 6); 18-24 h
[2] = test system: Staph. haemolyticus clin. is.; experiment: MIC by microbroth dilution, Staph. haemolyticus; format: cell-based, Staphylococcus haemolyticus; details: Staph. haemolyticus clin. is. (code 602); 0.01% BSA; inocula about 10^4 (1-4), about 5×10^5 cfu/ml (5, 6); 18-24 h
Strep. pyogenes C203 = experiment: MIC by microbroth dilution, Strep. pyogenes; format: cell-based, Streptococcus pyogenes; details: Strep. pyogenes C203 (code 49); Todd Hewitt broth; 0.01% BSA; inocula about 10^4 (1-4), about 5×10^5 cfu/ml (5, 6); 18-24 h
Strep. pneumoniae UC41 = experiment: MIC by microbroth dilution, Strep. pneumoniae; format: cell-based, Streptococcus pneumoniae; details: Strep. pneumoniae UC41 (code 44); Todd Hewitt broth; 0.01% BSA; inocula about 10^4 (1-4), about 5×10^5 cfu/ml (5, 6); 18-24 h
[3] = test system: Enterococcus faecalis ATCC 6919; experiment: MIC by microbroth dilution, Enterococcus faecalis; format: cell-based; details: Enterococcus faecalis ATCC 6919 (code 149); 0.01% BSA; inocula about 10^4 (1-4), about 5×10^5 cfu/ml (5, 6); 18-24 h
[4] = test system: Clostridium perfringens ISS30543; format: cell-based; details: Clostridium perfringens ISS30543 (code 290); anaerobe, 48 h; 0.01% BSA; inocula about 10^5 (1-4), about 5×10^5 cfu/ml (5, 6)
[5] = test system: Propionibacterium acnes ATCC6919; experiment: MIC by microbroth dilution, Propionibacterium acnes; format: cell-based; details: Propionibacterium acnes ATCC6919 (code 1014); anaerobe, 48 h; 0.01% BSA; inocula about 10^5 (1-4), about 5×10^5 cfu/ml (5, 6)
[6] = test system: Bacteroides fragilis ATCC 25285; experiment: MIC by microbroth dilution, Bacteroides fragilis; format: cell-based; details: Bacteroides fragilis ATCC 25285 (code 1011); anaerobe, 48 h; 0.01% BSA; inocula about 10^5 (1-4), about 5×10^5 cfu/ml (5, 6)
[7] = test system: Neisseria gonorrhoeae ISM 68/126; experiment: MIC by microbroth dilution, Neisseria gonorrhoeae; format: cell-based; details: Neisseria gonorrhoeae ISM 68/126 (code 997); 5% CO2, 48 h; 0.01% BSA; inocula about 10^4 (1-4), about 5×10^5 cfu/ml (5, 6)
[8] = test system: Haemophilus influenzae type b ATCC19418; experiment: MIC by microbroth dilution, Haemophilus influenzae; format: cell-based; details: Haemophilus influenzae type b ATCC19418 (code 970); 5% CO2, 48 h; 0.01% BSA; inocula about 10^4 (1-4), about 5×10^5 cfu/ml (5, 6)
[9] = test system: Escherichia coli SKF 12140; experiment: MIC by microbroth dilution, Escherichia coli; format: cell-based; details: Escherichia coli SKF 12140 (code 47); 0.01% BSA; inocula about 10^4 (1-4), about 5×10^5 cfu/ml (5, 6); 18-24 h
[10] = test system: Pseudomonas aeruginosa ATCC10145; experiment: MIC by microbroth dilution, Pseudomonas aeruginosa; format: cell-based; details: Pseudomonas aeruginosa ATCC10145 (code 4); 0.01% BSA; inocula about 10^4 (1-4), about 5×10^5 cfu/ml (5, 6); 18-24 h
[11] = test system: Proteus vulgaris X19H ATCC881; experiment: MIC by microbroth dilution, Proteus vulgaris; format: cell-based; details: Proteus vulgaris X19H ATCC881 (code 79); 0.01% BSA; inocula about 10^4 (1-4), about 5×10^5 cfu/ml (5, 6); 18-24 h
[12] = test system: Klebsiella pneumoniae ISM; experiment: MIC by microbroth dilution, Klebsiella pneumoniae; format: cell-based; details: Klebsiella pneumoniae ISM (code 142); 0.01% BSA; inocula about 10^4 (1-4), about 5×10^5 cfu/ml (6); 18-24 h
[13] = inocula about 10^4 cfu/ml (compounds 1-4), about 5×10^5 cfu/ml (5, 6)

| Structure (SMILES) | MIC of the compounds (Staph. aureus Tour; [13]) [µg/mL] | MIC of the compounds (Staph. aureus Smith) [µg/mL] | MIC of the compounds [1] [µg/mL] | MIC of the compounds [2] [µg/mL] | MIC of the compounds (Strep. pyogenes C203) [µg/mL] | MIC of the compounds (Strep. pneumoniae UC41) [µg/mL] | MIC of the compounds [3] [µg/mL] | MIC of the compounds [4] [µg/mL] | MIC of the compounds [5] [µg/mL] | MIC of the compounds [6] [µg/mL] | MIC of the compounds [7] [µg/mL] | MIC of the compounds [8] [µg/mL] | MIC of the compounds [9] [µg/mL] | MIC of the compounds [10] [µg/mL] | MIC of the compounds [11] [µg/mL] | MIC of the compounds [12] [µg/mL] | MIC of the compounds (Staph. aureus Tour; 10^6 cfu/ml) [µg/mL] | MIC of the compounds (Staph. aureus Tour; 30% b.s.) [µg/mL] |
| --- | --- | --- | --- | --- | --- | --- | --- | --- | --- | --- | --- | --- | --- | --- | --- | --- | --- | --- |
| CCSCc1sc2nc1C(=O)NCC(=O)NC(C(O)c1ccccc1)c1nc(cs1)-c1nc(cs1)-c1nc(-c3nc(C4=N[C@H](C(=O)N5CCC[C@H]5C(N)=O)CO4)cs3)ccc1-c1nc(cs1)C(=O)N[C@@H](CC(=O)NC)c1nc(c(C)s1)C(=O)N[C@H]2C(C)C (stereo partly drawn) [Compound 4] | 0.13 | 0.25 | 4 | 8 | 64 | 0.5 | 0.06 | 0.016 | 0.004 | > 128 | > 128 | > 128 | > 128 | > 128 | > 128 | > 128 |  |  |
| CCN(CC)CCNC(=O)[C@@H]1CCCN1C(=O)[C@@H]1COC(c2csc(-c3ccc4c(n3)-c3csc(n3)-c3csc(n3)C(C(O)c3ccccc3)NC(=O)CNC(=O)c3nc(sc3CO)[C@H](C(C)C)NC(=O)c3nc(sc3C)[C@H](CC(=O)NC)NC(=O)c3csc-4n3)n2)=N1 (stereo partly drawn) [Compound 5] | 0.06 | 0.13 | 0.13 | 0.13 | 0.13 | 0.13 | 0.06 | 0.06 | 0.03 | 32 | 32 | 8 | > 128 | > 128 | > 128 |  | 0.13 | 0.25 |
| CNC(=O)C[C@@H]1NC(=O)c2csc(n2)-c2ccc(-c3nc(C4=N[C@H](C(=O)N5CCC[C@H]5C(N)=O)CO4)cs3)nc2-c2csc(n2)-c2csc(n2)C(C(O)c2ccccc2)NC(=O)CNC(=O)c2nc(sc2CN(C)CCN(C)C)[C@H](C(C)C)NC(=O)c2nc1sc2C (stereo partly drawn) [Compound 3] | 1 | 1 | 8 | 8 | 2 | 1 | 1 | 4 | 0.5 | > 128 | > 128 | > 128 | > 128 | > 128 | > 128 | > 128 | 4 | 1 |
| CNC(=O)CC1NC(=O)c2csc(n2)-c2ccc(-c3nc(C4=NC(C(=O)N5CCCC5C(N)=O)CO4)cs3)nc2-c2csc(n2)-c2csc(n2)C(C(O)c2ccccc2)NC(=O)CNC(=O)c2nc(sc2CN(C)C)C(C(C)C)NC(=O)c2nc1sc2C (stereo not drawn) [Compound 2] | 0.13 | 0.13 | 0.13 | 0.25 | 0.5 | 0.13 | 0.06 | 0.06 | 0.06 | 128 | 4 | 8 | > 128 | > 128 | > 128 | > 128 | 0.13 | 0.13 |
| CCN(CC)CCNC(=O)[C@@H]1CCCN1C(=O)[C@@H]1COC(c2csc(-c3ccc4c(n3)-c3csc(n3)-c3csc(n3)C(C(O)c3ccccc3)NC(=O)CNC(=O)c3nc(sc3CN(C)C)[C@H](C(C)C)NC(=O)c3nc(sc3C)[C@H](CC(=O)NC)NC(=O)c3csc-4n3)n2)=N1 (stereo partly drawn) [Compound 6] | 0.13 | 0.13 | 0.5 | 0.5 | 0.13 | 0.13 | 0.13 | 0.06 | 16 | 64 | 16 | > 128 | > 128 | > 128 | > 128 | > 128 |  |  |
| CCN(CC)Cc1sc2nc1C(=O)NCC(=O)NC(C(O)c1ccccc1)c1nc(cs1)-c1nc(cs1)-c1nc(-c3nc(C4=NC(C(=O)N5CCCC5C(N)=O)CO4)cs3)ccc1-c1nc(cs1)C(=O)NC(CC(=O)NC)c1nc(c(C)s1)C(=O)NC2C(C)C (stereo not drawn) [Compound 1] | 0.13 | 0.13 |  | 0.13 | 4 | 1 | 0.06 | 0.13 | 0.03 | 64 | > 128 | > 128 | > 128 | > 128 | > 128 | > 128 | 0.25 | 0.5 |

— US6008225A, “Derivatives of antibiotic GE2270 factors C2a, D2 and E” (BioSearch Italia, S.p.A., priority 1996, dated 1999)
